Test results as given in patent US11098040B2, “Compounds and methods of use” (Ferro Therapeutics, Inc., priority 2018, dated 2021).
pIC50: −log10 of the molar value. Read-outs that look alike come from different tables or passages of the source.

Experiments:
SJSA-1 = assay: Cell proliferation (Alamar Blue) assay, SJSA-1 osteosarcoma, with/without ferrostatin; format: cell-based, human; settings: Homo sapiens, read-out: IC50
Protocol: Cell viability assay was performed to assess the potency of the compounds in human cancer cell lines 786-O (renal cell carcinoma) and SJSA-1 (osteosarcoma). Additional cell lines, such as those described above in Example 4 as well as various others, e.g., pancreatic cancer cell lines (Panc 02.13, BxPC-3, Panc 12, Panc 02.03, Panc 6.03, PSN-1, HPAC, and Capan-1) and prostate cancer cell lines (PC-3, DU145, 22Rv1, NCI-H660, BPH1, LNCaP, BM-1604, and MDA PCa 2b), were tested for select compounds as shown in Table 25.
Cells (SJSA-1, 786-O and A431) were seeded (5000 cells/100 μL/well) in 96-well tissue culture plate and incubated at 37° C./5% CO2 for 16-24 hours. The cells were then treated with compounds (25 μL of 5×). The compound concentrations were 10-0.0005 μM prepared in 3-fold serial dilutions with final DMSO concentration of 1%. The plates were then incubated for 24 h at 37° C./5% CO2 in a moist environment. Then Alamar Blue™ reagent (final concentration 1×-12.5 μL) was added to each well and incubated for 1.5 hours at 37° C./5% CO2. The plates were read on fluorescence reader at 540 nm excitation and 590 nm emission wavelengths. The IC50 values were subsequently determined using a sigmoidal dose-response curve (variable slope) in GraphPad Prism® 5 software.
Studies have shown that lipophilic antioxidants, such as ferrostatin, can rescue cells from GPX4 inhibition-induced ferroptosis. For instance, mesenchymal state GPX4-knockout cells can survive in the presence of ferrostatin, however, when the supply of ferrostatin is terminated, these cells undergo ferroptosis (see, e.g., Viswanathan et al., Nature 547:453-7, 2017). […] Accordingly, the ability of a molecule to induce ferroptotic cancer cell death, and that such ability is admonished by the addition of ferrostatin, is clear indication that the molecule is an GPX4 inhibitor.

[1] = Whole blood stability, mouse; format: in vitro ADME
Description: (§1) The results of the assay on stability in blood and IC50 values for pancreatic cancer cell line KP4 are given below in Table 24.

KP4 = assay: Cell viability assay (CellTiter Glo), pancreatic ductal adenocarcinoma KP4; format: cell-based, human; settings: Homo sapiens, KP-4, 96 h, pancreatic cancer cell line KP4, 96 hours, CellTiter Glo; read-out: IC50 μM KP4
Method in brief: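 KP4 cells seeded at 1,000–10,000 per well, treated 96 h with 9-point 3-fold dilutions from 30 μM top (4.6 nM–30 μM, duplicates; ≤0.25% DMSO). Viability by CellTiter Glo luminescence; % inhibition relative to DMSO-only wells, giving IC50, relative IC50 or % top inhibition.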

[2] = Whole blood stability, human; format: in vitro ADME
Description: as §1

| SMILES | pIC50 (SJSA-1; SJSA-1, Cell Line SJSA-1) | Whole Blood Stability % Remaining at 37° C. Mouse ([1]; 0 min) [%] | Whole Blood Stability % Remaining at 37° C. Mouse ([1]; 30 min) [%] | Whole Blood Stability % Remaining at 37° C. Mouse ([1]; 60 min) [%] | IC50 (KP4) [µM] | Whole Blood Stability % Remaining at 37° C. Human ([2]; 0 min) [%] | Whole Blood Stability % Remaining at 37° C. Human ([2]; 30 min) [%] | Whole Blood Stability % Remaining at 37° C. Human ([2]; 60 min) [%] | pIC50 (SJSA-1; Cell Line SJSA-1) |
| --- | --- | --- | --- | --- | --- | --- | --- | --- | --- |
| C[C@H]1Cc2c([nH]c3ccccc23)[C@H](c2ccc(N3CCOCC3)cc2)N1C(=O)CF [Compound 227] |  |  |  |  |  |  |  |  | < 5.52 |
| CC(C)OC(=O)[C@H]1Cc2c([nH]c3ccccc23)[C@H](c2ccc(C(=O)OC(C)(C)C)cc2)N1C(=O)CCl [Compound 20] |  | 100.0 | 39.9 | 19.1 | < 0.01 | 100.0 | 50.7 | 41.6 |  |
| CN(C)C(=O)[C@H]1Cc2c([nH]c3ccccc23)[C@H](c2ccc(S(C)(=O)=O)cc2)N1C(=O)CCl [Compound 59] |  | 100.0 | 97.9 | 65.6 | 0.1 to 0.5 | 100.0 | 48.9 | 51.5 |  |
| COC(=O)[C@H]1Cc2c([nH]c3ccccc23)[C@H](c2ccc(S(=O)(=O)N3CC(O)C3)cc2)N1C(=O)CCl [Compound 37] |  | 100.0 | 25.4 | 9.8 | 0.01 to 0.1 | 100.0 | 37.8 | 17.9 |  |
| COC(=O)[C@H]1Cc2c([nH]c3ccccc23)[C@@H](c2ccc(C(=O)N3CCC(O)CC3)cc2)N1C(=O)CCl [Compound 32a] |  | 100.0 | 0.0 | 0.0 | > 1 | 100.0 | 1.9 | 0.9 |  |
| C#CCOC(=O)c1ccc([C@@H]2c3[nH]c4ccccc4c3C[C@H](C(=O)OC)N2C(=O)CCl)cc1 [BXa] |  | 100.0 | 0.0 | 0.0 | 0.01 to 0.1 | 100.0 | 95.7 | 46.8 |  |
| CN(C)C(=O)[C@H]1Cc2c([nH]c3ccc(Br)cc23)[C@H](c2ccc(C(=O)OC(C)(C)C)cc2)N1C(=O)CCl [Compound 61] |  | 100.0 | 20.5 | 6.8 | < 0.01 | 100.0 | 49.2 | 34.0 |  |
| COC(=O)[C@H]1Cc2c([nH]c3ccccc23)[C@H](c2ccc(C(=O)NC(C)(C)C)cc2)N1C(=O)CCl [Compound 9] |  | 100.0 | 61.9 | 40.6 | < 0.01 | 100.0 | 53.8 | 47.0 |  |
| CN(C)C(=O)c1ccc([C@H]2c3sc4ccccc4c3C[C@H](C(=O)N(C)C)N2C(=O)CCl)cc1 [Compound 55] |  | 100.0 | 51.4 | 24.6 | 0.1 to 0.5 | 100.0 | 50.6 | 20.6 |  |
| COC(=O)[C@H]1Cc2c([nH]c3ccccc23)[C@H](c2ccc(C(=O)OC(C)(C)C)cc2)N1C(=O)CCl [Compound 1] |  | 100.0 | 59.6 | 46.6 | < 0.01 | 100.0 | 60.5 | 43.0 |  |
| CC(C)N(C(=O)[C@H]1Cc2c([nH]c3ccccc23)[C@H](c2ccc(C(=O)N(C)C)cc2)N1C(=O)CCl)C(C)C [Compound 39] |  | 100.0 | 73.2 | 60.4 | 0.1 to 0.5 | 100.0 | 64.5 | 50.4 |  |

Further lines, with some results ahead:

| pIC50 (SJSA-1; SJSA-1, Cell Line SJSA-1) | Whole Blood Stability % Remaining at 37° C. Mouse ([1]; 0 min) [%] | Whole Blood Stability % Remaining at 37° C. Mouse ([1]; 30 min) [%] | Whole Blood Stability % Remaining at 37° C. Mouse ([1]; 60 min) [%] | IC50 (KP4) [µM] | Whole Blood Stability % Remaining at 37° C. Human ([2]; 0 min) [%] | Whole Blood Stability % Remaining at 37° C. Human ([2]; 30 min) [%] | Whole Blood Stability % Remaining at 37° C. Human ([2]; 60 min) [%] | SMILES | pIC50 (SJSA-1; Cell Line SJSA-1) |
| --- | --- | --- | --- | --- | --- | --- | --- | --- | --- |
| 6.70 |  |  |  |  |  |  |  | C[C@H]1Cc2c([nH]c3ccccc23)C(c2ccc(N3CCOCC3)nc2)N1C(=O)CCl (stereo partly drawn) [Example 124] |  |
| < 5.52 |  |  |  |  |  |  |  | CC#CC(=O)N1[C@@H](c2ccc(N3CCOCC3)cc2)c2[nH]c3ccccc3c2C[C@@H]1C [Compound 224] |  |
|  | 100.0 | 0.0 | 0.0 | 0.1 to 0.5 | 100.0 | 44.3 | 14.7 | COC[C@H]1Cc2c([nH]c3ccccc23)[C@@H](c2ccc(C(=O)OC(C)(C)C)cc2)N1C(=O)CCl [Compound 64] |  |
|  | 100.0 | 0.0 | 0.0 | 0.01 to 0.1 | 100.0 | 46.0 | 27.5 | COC(=O)c1ccc([C@H]2c3sc4ccccc4c3C[C@H](C(=O)OC)N2C(=O)CCl)cc1 [Example 55c] |  |
|  | 100.0 | 1.5 | 0.0 | 0.01 to 0.1 | 100.0 | 109.5 | 85.6 | COC(=O)c1ccc([C@H]2c3[nH]c4cccc(Br)c4c3C[C@H](C(=O)OC)N2C(=O)CCl)cc1 [Compound 95] |  |
|  | 100.0 | 0.0 | 0.0 | 0.01 to 0.1 | 100.0 | 82.4 | 43.5 | COC(=O)[C@H]1Cc2c([nH]c3ccccc23)[C@H](C23CC(C(=O)OC)(C2)C3)N1C(=O)CCl [Compound 62] |  |
|  | 100.0 | 0.5 | 0.0 | < 0.01 | 100.0 | 54.1 | 27.5 | COC(=O)c1ccc([C@H]2c3[nH]c4ccccc4c3C[C@H](C)N2C(=O)CCl)cc1 [Compound 77] |  |
|  | 100.0 | 89.5 | 2.4 | < 0.01 | 100.0 | 85.1 | 92.7 | COC(=O)c1ccc([C@H]2c3[nH]c4ccc(OC)cc4c3C[C@H](C)N2C(=O)CCl)cc1 [Compound 113] |  |
|  | 100.0 | 90.4 | 75.5 | > 1 | 100.0 | 80.4 | 59.3 | CC(=O)Nc1ccc([C@H]2c3[nH]c4ccccc4c3C[C@H](C(=O)N(C)C)N2C(=O)CCl)cc1 [Compound 71] |  |
|  | 100.0 | 66.1 | 30.0 | < 0.01 | 100.0 | 78.5 | 52.9 | COC(=O)[C@H]1Cc2c([nH]c3ccccc23)[C@H](c2ccc(NCC3CC3)cc2)N1C(=O)CCl [Compound 83] |  |
